Values joined by “and” are separate entries in the source; they are usually repeats but may differ in a detail not shown here. Identical values can stand only once.
Key:
PD-L1 = target: T1, PD-L1 (Homo sapiens, UniProt Q9NZQ7); test: In vitro autoradiography on human lung tumor and xenograft tissue sections; format: binding; conditions: 0.25 nM radiotracer, unlabelled peptide 0.1 nM, 1 nM, 10 nM
T1 construct: Human lung tumor tissues were embedded in OCT and chilled in 2-methylbutane; from tissue; host or cells: human non-small cell lung cancer biopsy sections; L2987 (hPD-L1+) and HT-29 (hPD-L1-) human xenograft sections grown in mice
T1 sequence (Q9NZQ7 19-290): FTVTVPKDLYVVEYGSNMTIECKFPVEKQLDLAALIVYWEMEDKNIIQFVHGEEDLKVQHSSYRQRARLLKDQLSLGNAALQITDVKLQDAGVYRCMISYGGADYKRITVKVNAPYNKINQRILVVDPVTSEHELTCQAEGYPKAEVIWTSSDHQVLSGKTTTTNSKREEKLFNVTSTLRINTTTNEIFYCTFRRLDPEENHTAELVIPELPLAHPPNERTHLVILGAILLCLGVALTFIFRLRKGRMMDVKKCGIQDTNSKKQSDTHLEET
Method: Human lung tumor tissues were embedded in OCT and chilled in 2-methylbutane for 2-5 minutes until frozen. Samples were stored in −80° C. degree freezer until use. Human xenograft tissues were also included in the assay. […] Once resulting xenograft tumors reached appropriate size (approx. 200-300 mm^3), mice were anesthetized with 2% isoflurane and sacrificed via cervical dislocation. Fresh tumor tissues were excised, immersed into OCT and chilled in 2-methylbutane for 2-5 minutes until frozen. The tissues were then wrapped in foil/ZIPLOC® bag and stored at −80° C. until use. For all tissues (human lung tumor and xenografts) sections of 5 μm thickness (collected as 2 sections/slide) were cut using a cryostat, thaw-mounted on glass microscope slides, and allowed to air dry for approximately 30 minutes. Blocking studies with cold (unlabelled) peptide at 0.1 nM, 1 nM, and 10 nM respectively. The individual slides, 1 slide per concentration, were transferred to glass slide incubation chambers for incubation. […] Autoradiography signals from tissue-associated radioactivity were quantified from these ROIs. The apparent displacement of the [^18F]labelled macrocyclic PD-L1 peptide radiotracer when compared to the total binding sections was determined for 3 different concentrations (0.1 nM, 1 nM, and 10 nM) of unlabeled peptide in both human lung tumor sections as well as human xenograft sections. […]

[1] = PET imaging of mice bearing bilateral xenograft tumors: hPD-L1(+) tumor; format: in vivo, mouse; conditions: mouse, hPD-L1(+) L2987 xenograft tumor, iv, total radioactivity, mean of 4 mice
Method: (§1) Mice bearing bilateral xenograft tumors were produced by introducing 2×10^6 hPD-L1(+) L2987 human lung carcinoma cells and 4×10^6 hPD-L1(−) HT-29 human colon carcinoma cells subcutaneously on opposite sides of the mouse. Once tumors reached approximately 300 mm^3 (approximately 2-3 weeks after cell implantation), animals were selected for imaging. The body weight and tumor size of each study were measured and recorded on the imaging day before imaging procedure. Mice were placed in an anesthetic induction chamber and 3% isoflurane inhalant anesthesia was delivered in 100% O2 at a rate of 1-1.5 L/min. Once sedated, mice were removed from the induction chamber and placed into a plexiglass 4-chamber mouse hotel (custom-made by BMS-Applied Biotechnology group), while continuing to receive 1-1.5% isoflurane inhalant anesthesia and delivered in 100% O2 at a rate of 2 L/min via the nose-cone. Animal were kept warm using an external standalone temperature regulating unit (M2M Imaging Corp) to prevent hypothermia during imaging. Mouse respiration was continuously monitored during imaging procedures and isoflurane may be adjusted dependent on depth of anesthesia. Mice were then placed into a custom animal holder with capacity for 4 animals, where they remained under anesthesia for the duration of the study. The animal holder was transferred to the microPET® F120™ scanner (Siemens Preclinical Solutions, Knoxville, Tenn.). The axial field of view of this instrument is 7.6 cm. With this limitation, animals were positioned such that the scanning region was from immediately in front of the eyes to approximately the base of the tail. A 10-minute transmission image was first acquired using a ^57Co point source for the purpose of attenuation correction of the final PET images. Following the transmission scan, radiotracer solutions were administered via the previously installed tail vein catheters and a 2 hour emission image was acquired. Injected radiotracer solutions were injected into a total 8 mice (body weight: 22.2±2.0 gram) with tumor volumes 203.0±51.4 mm^3 for HT-29 and 422.9±128.4 mm^3 for L2987 were imaged 16-17 days post cell implantation. Each mouse received a single injection of SC dose of PD-L1 binding macrocyclic peptide 60 mg/kg (N=4) or saline (N=4) 30 minute before the [^18F]labelled macrocyclic PD-L1 peptide (124.0±8.4 μCi, tracer mass: 1.0±0.4 μg/kg) IV injection. Images were reconstructed using a maxiumum a posteriori (MAP) algorithm with attenuation correction using the collected transmission images and corrected for radioisotope decay. In the final images, regions of interest (ROIs) were drawn around the tumor boundary using ASIPro software (Siemens Preclinical Solutions). Time-activity curves were calculated for each ROI to yield a quantitative view of radiotracer within the tumor volume over the course of the 2 hour emission image. For final comparison, individual time-activity curves were normalized based on the injected radiotracer dose for each specific animal. Radiotracer uptake was compared across tumors using the final 10 minutes of each time-activity curve (90-100 minutes post-radiotracer injection).

[2] = test system: hPD-L1(+) L2987 human lung carcinoma xenografts; test: as above; format: in vivo, mouse; conditions: for SUV in L2987: individual mice
Method: as §1

For `CCCC[C@H]1C(=O)N(C)[C@@H](CCCC)C(=O)N[C@@H](CC(C)C)C(=O)N[C@H](C(=O)NCC(=O)N[C@@H](Cc2cn(CCOCCOCCOCCOc3cccnc3[18F])nn2)C(=O)O)CSCC(=O)N[C@@H](Cc2ccc(O)cc2)C(=O)N(C)[C@@H](C)C(=O)N[C@@H](CC(N)=O)C(=O)N2CCC[C@H]2C(=O)N[C@@H](CN)C(=O)N[C@@H](CC(C)C)C(=O)N2C[C@H](O)C[C@H]2C(=O)N[C@@H](Cc2c[nH]c3ccccc23)C(=O)N[C@@H](CCN)C(=O)N[C@@H](Cc2cn(CC(=O)O)c3ccccc23)C(=O)N1C` [[^18F]labelled macrocyclic PD-L1 peptide], the “displacement of radiotracer by unlabelled peptide” value (PD-L1) was “dose dependent displacement”, the SUV ([1]; 1 ug/kg, saline predose) was 0.298 SUV and the SUV ([1]; 60 mg/kg PD-L1 binding macrocyclic peptide predose) was 0.05 SUV. The “radiotracer uptake in hPD-L1(+) L2987 xenografts relative to hPD-L1(−) HT-29 xenografts” value ([2]; SC 60 mg/kg PD-L1 binding macrocyclic peptide 30 minutes before radiotracer) was 0.7 ×, the “radiotracer uptake in hPD-L1(+) L2987 xenografts relative to hPD-L1(−) HT-29 xenografts” value ([2]; animals receiving only the radiotracer) was 8.1 × and the “SUV in L2987” value ([2]; 60 mg/kg PD-L1 binding macrocyclic peptide SC 30 min before tracer IV, 60 mg/kg) was 0.060 and 0.055 and 0.042 and 0.043. The “SUV in L2987” value ([2]; saline (0 mg/kg PD-L1 binding macrocyclic peptide) SC 30 min before tracer IV, 90-100 minutes post-radiotracer injection) was 0.231 and 0.452 and 0.297 and 0.213.
